≈ marks a conversion by molar mass, not a printed value. Like-named read-outs stand apart in the source and are kept apart here.
How the values were obtained:
[1] = tested on: Klebsiella species A20468; experiment: MIC, tube dilution, Klebsiella species A20468; type: cell-based; settings: Klebsiella species (K. pneumoniae) A20468; overnight 37° C.; read-out: Minimum Inhibitory Concentration (M.I.C.)
Source text: (§1) Representative compounds of the present invention were subjected to in vitro antibiotic screening against a variety of microorganisms.

[2] = tested on: Ser. marcescens A-20019; experiment: MIC, tube dilution, Serratia marcescens A20019; type: cell-based; settings: Serratia marcescens, A20019, Serratia marcescens A20019; overnight 37° C.; read-out: Minimum Inhibitory Concentration (M.I.C.)
Source text: as §1

[3] = tested on: E. coli A-15119; experiment: MIC, tube dilution, Escherichia coli A15119; type: cell-based; settings: Escherichia coli, A15119, E. coli A15119; overnight 37° C.; read-out: Minimum Inhibitory Concentration (M.I.C.)
Source text: as §1

[4] = tested on: Staph. aureus (Pen-Res) A-9606; experiment: MIC, tube dilution, Staphylococcus aureus A9606 (Pen-Res); type: cell-based; settings: Staphylococcus aureus, Staph. aureus A9606 (Pen-Res); overnight 37° C.; read-out: Minimum Inhibitory Concentration (M.I.C.)
Source text: as §1

[5] = tested on: Pr. morganii A-15153; experiment: MIC, tube dilution, Proteus morganii A15153; type: cell-based; settings: Morganella morganii, A15153, Proteus morganii A15153; overnight 37° C.; read-out: Minimum Inhibitory Concentration (M.I.C.)
Source text: as §1

[6] = tested on: Staph. aureus A-9537; experiment: MIC, tube dilution, Staphylococcus aureus A9537; type: cell-based; settings: Staphylococcus aureus, A9537, Staph. aureus A9537; overnight 37° C., Nutrient Broth; read-out: Minimum Inhibitory Concentration (M.I.C.)
Source text: as §1

[7] = tested on: Staph. aureus A-9537 and 50% serum; experiment: MIC, tube dilution, Staph. aureus A9537 + 50% serum; type: cell-based, Staphylococcus aureus; settings: Staphylococcus aureus, overnight 37° C., read-out: Minimum Inhibitory Concentration (M.I.C.)
Source text: as §1

[8] = tested on: Proteus rettgeri A21203; experiment: MIC, tube dilution, Proteus rettgeri A21203; type: cell-based; settings: Providencia rettgeri, A21203, Proteus rettgeri A21203; overnight 37° C.; read-out: Minimum Inhibitory Concentration (M.I.C.)
Source text: as §1

[9] = tested on: Str. pyogenes A-9604; experiment: MIC, tube dilution, Streptococcus pyogenes A9604; type: cell-based; settings: Streptococcus pyogenes, A9604, Str. pyogenes A9604; overnight 37° C., Nutrient Broth; read-out: Minimum Inhibitory Concentration (M.I.C.)
Source text: as §1

[10] = tested on: K. pneumoniae A-15130; experiment: MIC, tube dilution, Klebsiella pneumoniae A15130; type: cell-based; settings: Klebsiella pneumoniae, A15130, K. pneumoniae A15130; overnight 37° C.; read-out: Minimum Inhibitory Concentration (M.I.C.)
Source text: as §1

[11] = tested on: Ps. aeruginosa A-21213; experiment: MIC, tube dilution, Pseudomonas aeruginosa A21213; type: cell-based; settings: overnight 37° C.; for MIC: Pseudomonas aeruginosa, A21213, Pseudomonas aeruginosa A21213, read-out: Minimum Inhibitory Concentration (M.I.C.)
Source text: as §1

[12] = tested on: Str. pneumoniae A-9585; experiment: MIC, tube dilution, Streptococcus pneumoniae A9585; type: cell-based; settings: Streptococcus pneumoniae, A9585, Str. pneumoniae A9585; overnight 37° C., Nutrient Broth; read-out: Minimum Inhibitory Concentration (M.I.C.)
Source text: as §1

[13] = tested on: S. aureus A9537; experiment: In vivo protection of mice, lethal infection with S. aureus A9537; settings: Staphylococcus aureus, A9537, im, IM, 2 treatments, read-out: PD50
Procedure: Representative compounds of the present invention were also tested in vivo in mice and their PD50 (dose of compound in mg/kg required to protect 50% of the treated mice against an otherwise lethal infection of a micro-organism) values determined with respect to the test organisms shown below.

[14] = tested on: Pr. mirabilis A-9900; experiment: MIC, tube dilution, Proteus mirabilis A9900; type: cell-based; settings: Proteus mirabilis, A9900, Proteus mirabilis A9900; overnight 37° C.; read-out: Minimum Inhibitory Concentration (M.I.C.)
Source text: as §1

[15] = tested on: E. coli A-20341-1; experiment: MIC, tube dilution, Escherichia coli A20341-1; type: cell-based; settings: Escherichia coli, A203411, E. coli A20341-1; overnight 37° C.; read-out: Minimum Inhibitory Concentration (M.I.C.)
Source text: as §1

[16] = tested on: Ent. cloacae A-9656; experiment: MIC, tube dilution, Enterobacter cloacae A9656; type: cell-based; settings: Enterobacter cloacae, A9656, Enterobacter cloacae A9656; overnight 37° C.; read-out: Minimum Inhibitory Concentration (M.I.C.)
Source text: as §1

[17] = tested on: Ent. cloacae A-9659; experiment: MIC, tube dilution, Enterobacter cloacae A9659; type: cell-based; settings: overnight 37° C.; for MIC: Enterobacter cloacae, A9659, Enterobacter cloacae A9659, read-out: Minimum Inhibitory Concentration (M.I.C.)
Source text: as §1

[18] = tested on: Proteus vulgaris A21559; experiment: MIC, tube dilution, Proteus vulgaris A21559; type: cell-based; settings: Proteus vulgaris, A21559, Proteus vulgaris A21559; overnight 37° C.; read-out: Minimum Inhibitory Concentration (M.I.C.)
Source text: as §1

[19] = Mouse blood levels after intramuscular administration; type: in vivo; settings: average of 6 mice, read-out: Mouse blood level; for concentration at 10 min: 10 minutes after IM 40 mg/kg; for concentration at 20 min: 20 minutes after IM 40 mg/kg; for concentration at 0.5 h: 30 minutes after IM 40 mg/kg; for concentration at 0.75 h: 45 minutes after IM 40 mg/kg; for concentration at 1 h: 60 minutes after IM 40 mg/kg; for concentration at 1.5 h: 90 minutes after IM 40 mg/kg; for concentration at 2 h: 120 minutes after IM 40 mg/kg
Procedure: Mouse blood levels after intramuscular administration of representative compounds of the present invention were determined and are reported in the table below.

[20] = tested on: Ps. aeruginosa A-9843A; experiment: MIC, tube dilution, Pseudomonas aeruginosa A9843A; type: cell-based; settings: Pseudomonas aeruginosa, A9843A, read-out: Minimum Inhibitory Concentration (M.I.C.), Pseudomonas aeruginosa A9843A; overnight 37° C.
Source text: as §1

[21] = tested on: Str. faecalis A-20688; experiment: MIC, tube dilution, Streptococcus faecalis A20688; type: cell-based; settings: Enterococcus faecalis, A20688, Str. faecalis A20688; overnight 37° C.; read-out: Minimum Inhibitory Concentration (M.I.C.)
Source text: as §1

[22] = tested on: Staph. aureus (Meth-Res) A-15097; experiment: MIC, tube dilution, Staphylococcus aureus A15097 (Meth-Res); type: cell-based; settings: Staphylococcus aureus, Staph. aureus A15097 (Meth-Res); overnight 37° C.; read-out: Minimum Inhibitory Concentration (M.I.C.)
Source text: as §1

C[C@@H](O)[C@H]1C(=O)N2C(C(=O)O)=C([C@H]3C[C@H](N)C3)S[C@H]12 (relative stereo) [Example 65, (1"R,5R,6S and 1'S,5S,6R)-2-(trans-3'-Amino-1'-cyclobutyl)-6-(1"-hydroxy-1"-ethyl)penem-3-carboxylic Acid (isomer B)]
MIC [1]: 0.5 µg/mL (≈ 1.76 µM)
MIC [2]: 0.5 µg/mL (≈ 1.76 µM)
MIC [3]: 0.13 µg/mL (≈ 0.457 µM)
MIC [4]: 0.06 µg/mL (≈ 0.211 µM)
MIC [5]: 1 µg/mL (≈ 3.52 µM)
MIC [6]: 0.008 µg/mL (≈ 0.0281 µM)
MIC [7]: 0.06 µg/mL
MIC [8]: < 0.25 µg/mL
MIC [9]: 0.004 µg/mL (≈ 0.0141 µM)
MIC [10]: < 0.25 µg/mL
Minimum Inhibitory Concentration (M.I.C.) ([11]; Pseudomonas aeruginosa A21213): 63 µg/mL
MIC [11]: 125 µg/mL (≈ 440 µM)
MIC [12]: 0.004 µg/mL (≈ 0.0141 µM)
ED50 ([13]; 7.8 × 10^5 organisms): 0.12 mg/kg
MIC [14]: < 0.25 µg/mL
MIC [15]: < 0.25 µg/mL
MIC [16]: 0.5 µg/mL (≈ 1.76 µM)
Minimum Inhibitory Concentration (M.I.C.) ([17]; Enterobacter cloacae A9659): 2 µg/mL
MIC [17]: 4 µg/mL (≈ 14.1 µM)
MIC [18]: < 0.25 µg/mL
concentration at 10 min [19]: 44700 ng/mL
concentration at 20 min [19]: 34400 ng/mL
concentration at 0.5 h [19]: 23700 ng/mL
concentration at 0.75 h [19]: 17600 ng/mL
concentration at 1 h [19]: 9800 ng/mL
concentration at 1.5 h [19]: 3600 ng/mL
concentration at 2 h [19]: 1000 ng/mL
MIC [20]: 16 µg/mL (≈ 56.3 µM)
MIC [21]: 0.5 µg/mL (≈ 1.76 µM)

NCCOCC1=C(C(=O)O)N2C(=O)CC2S1 (stereo not drawn) [Example 86, 2-(2-Aminoethoxymethyl)penem-3-carboxylic Acid]
MIC [1]: > 125 µg/mL
MIC [2]: 2 µg/mL (≈ 8.19 µM)
MIC [3]: 2 µg/mL (≈ 8.19 µM)
MIC [4]: 32 µg/mL (≈ 131 µM)
MIC [5]: 8 µg/mL (≈ 32.8 µM)
MIC [6]: 0.13 µg/mL (≈ 0.532 µM)
MIC [7]: 1 µg/mL
MIC [22]: 125 µg/mL (≈ 512 µM)
MIC [8]: 2 µg/mL (≈ 8.19 µM)
MIC [9]: 0.13 µg/mL (≈ 0.532 µM)
MIC [10]: 4 µg/mL (≈ 16.4 µM)
MIC [11]: 125 µg/mL (≈ 512 µM)
MIC [12]: 0.13 µg/mL (≈ 0.532 µM)
ED50 ([13]; 1 × 10^6 organisms): 1.9 mg/kg
MIC [14]: 2 µg/mL (≈ 8.19 µM)
MIC [15]: 8 µg/mL (≈ 32.8 µM)
MIC [16]: 4 µg/mL (≈ 16.4 µM)
MIC [17]: 8 µg/mL (≈ 32.8 µM)
MIC [18]: 8 µg/mL (≈ 32.8 µM)
concentration at 10 min [19]: 36000 ng/mL
concentration at 20 min [19]: 26300 ng/mL
concentration at 0.5 h [19]: 16500 ng/mL
concentration at 0.75 h [19]: 7500 ng/mL
concentration at 1 h [19]: 4000 ng/mL
concentration at 1.5 h [19]: < 3100 ng/mL
concentration at 2 h [19]: < 3100 ng/mL
MIC [20]: 63 µg/mL (≈ 258 µM)
MIC [21]: 32 µg/mL (≈ 131 µM)

From patent US4272437A, “Antibacterial agents, and 4-thio azetidinone intermediates” (priority 1979, dated 1981)
